The source of these data is patent publication US20220177932A1, “PROCESS AND COMPOSITION FOR CONTROLLING ETHANOL PRODUCTION” (priority 2020, published 2022).

The test system of experiment [1] is Clostridium authoethanogenum. Kind of experiment: Syngas fermentation in stirred tank bioreactor, effect of vitamin feed rates on specific ethanol productivity. The conditions noted are these: Experiment 5. The format is cell-based. From the text:
A synthesis gas containing CO, CO2 and H2 was continuously introduced into a stirred tank bioreactor containing Clostridium ljungdahlii (Experiments 1-4) or Clostridium authoethanogenum (Experiment 5), along with a liquid medium containing trace metals and salts as described herein. Vitamins were provided using dedicated feed lines. A New Brunswick Bioflow reactor containing the fermentation medium was started with actively growing Clostridium ljungdahlii (Experiments 1-5) or with Clostridium authoethanogenum (Experiment 6). The rate of agitation of the reactor was set to 800 rpm at the start of the experiment and this agitation rate was maintained throughout the experiment. Feed gas flow to the reactor was increased based on the H2 and CO uptake of the culture. Temperature in the bioreactor was maintained at about 38° C. throughout the experiment. Samples of gas feed into the bioreactor and off-gas from the bioreactor and fermentation broth in the bioreactor were taken at intervals, for example feed gas, off-gas and fermentation broth were sampled about daily, once two hours and once four hours respectively. Above samples were analyzed for consumption or production of various gas components, broth acetic acid concentration, broth ethanol concentration and the optical density (cell density) of the culture. The unaroused volume of the reactor was maintained between 3000 to 3250 ml throughout the experiment. Further, the gas flow to the reactor was maintained at required gas flow rates by using a mass flow controller. The feed […] composition was 23% H2, 35% CO, 29% CO2 and 13% N2. In the following reactor runs, vitamins biotin, thiamine and pantothenate were feed to the reactor using a dedicated stream. Steady state conditions were maintained for a period of time greater than 5 times the cell retention time. Cell mass was essentially replaced 5 times before data collection phase started. After data set was collected, vitamin feed rate was adjusted, adjustment phase was repeated, and next data set was collected. Adjustment phase refers to an amount of time necessary for the culture to equilibrate to a change. In this experiment culture was allowed at least a 3-day adjustment phase. A cell recycle system (CRS) was attached to the reactor before the start of the experiment. During the experiment, medium feed rate was 3.0 to 6.0 ml/min, and through the CRS, 0-5 ml/min permeate was drawn out from the reactor. The following tables describe the vitamin feed rates and specific ethanol productivity (SEP). Experiment 5: Fermentation with Clostridium authoethanogenum with Biotin (B7) and Thiamine (B1) feeds held at lower base levels with increasing Pantothenate (B5) Feeds.

In another experiment the test system is Clostridium ljungdahlii. The description is as above. The experiment is classed as cell-based. The conditions noted are these: Experiment 4; vitamin B5 feed held constant below about 30 ug/g of cells produced, vitamin B1 and B7 feeds increased. From the text:
A synthesis gas containing CO, CO2 and H2 was continuously introduced into a stirred tank bioreactor containing Clostridium ljungdahlii (Experiments 1-4) or Clostridium authoethanogenum (Experiment 5), along with a liquid medium containing trace metals and salts as described herein. Vitamins were provided using dedicated feed lines. A New Brunswick Bioflow reactor containing the fermentation medium was started with actively growing Clostridium ljungdahlii (Experiments 1-5) or with Clostridium authoethanogenum (Experiment 6). The rate of agitation of the reactor was set to 800 rpm at the start of the experiment and this agitation rate was maintained throughout the experiment. Feed gas flow to the reactor was increased based on the H2 and CO uptake of the culture. Temperature in the bioreactor was maintained at about 38° C. throughout the experiment. Samples of gas feed into the bioreactor and off-gas from the bioreactor and fermentation broth in the bioreactor were taken at intervals, for example feed gas, off-gas and fermentation broth were sampled about daily, once two hours and once four hours respectively. Above samples were analyzed for consumption or production of various gas components, broth acetic acid concentration, broth ethanol concentration and the optical density (cell density) of the culture. […]

`CC(C)(CO)[C@@H](O)C(=O)NCCC(=O)O` [Pantothenate (B5), pantothenate]: the “SEP (specific ethanol productivity)” value in experiment [1] (feeds pantothenate 48.47, biotin 29.54, thiamine 23.10 μg/g cells produced) is recorded as 8.08 g//day/g cells; in experiment [1] (feeds pantothenate 58.08, biotin 26.65, thiamine 20.84 μg/g cells produced), 8.24 g//day/g cells; in experiment [1] (feeds pantothenate 62.90, biotin 23.04, thiamine 18.01 μg/g cells produced), 8.51 g//day/g cells; in experiment [1] (feeds pantothenate 68.78, biotin 25.19, thiamine 19.70 μg/g cells produced) it was 9.39 g//day/g cells; in experiment [1] (feeds pantothenate 70.67, biotin 21.62, thiamine 16.91 μg/g cells produced), 9.70 g//day/g cells; in experiment [1] (feeds pantothenate 81.90, biotin 18.79, thiamine 14.69 μg/g cells produced), 9.98 g//day/g cells. Moreover, the “specific ethanol productivity increase” value in experiment [1] (vitamin B5 feed from about 48 to about 82 ug/g of cells produced, vitamin B1 and B7 feeds under 30, further under 20 ug/g of cells produced) is listed as “about 24%”.

Take `Cc1ncc(C[n+]2csc(CCO)c2C)c(N)n1` [vitamin B1, thiamine]: the “effect of increasing feed rate on specific ethanol productivity” value with Clostridium ljungdahlii was “did not increase specific ethanol productivity”.

`O=C(O)CCCC[C@@H]1SC[C@@H]2NC(=O)N[C@@H]21` [vitamin B7, biotin]: the “effect of increasing feed rate on specific ethanol productivity” value in the experiment on Clostridium ljungdahlii is listed as “did not increase specific ethanol productivity”.
